Experimental data taken from ChEMBL document CHEMBL1159191, “2-alkyl-4-ethyl-5-[6-methyl-6-(2H-tetrazol-5-yl)heptyloxy]phenol leukotriene B4 receptor antagonists” (Bioorg Med Chem Lett, 1995).
pKi: −log10 of the molar value.

Columns and labels:
Cavia porcellus = species: Cavia porcellus; test: Compound was evaluated for antagonism of LTB4 effect on guinea pig lung strip contraction; type: functional
Leukotriene B4 receptor = Leukotriene B4 receptor (Homo sapiens, UniProt Q9NPC1+Q15722); test: LTB4-induced up-regulation of CD11b/CD18 in human neutrophils; type: functional
[1] = target: Leukotriene B4 receptor 1 (Homo sapiens, UniProt Q15722); test: Binding affinity against human neutrophil Receptor.
Sequence of Leukotriene B4 receptor 1 (Q15722 whole entry): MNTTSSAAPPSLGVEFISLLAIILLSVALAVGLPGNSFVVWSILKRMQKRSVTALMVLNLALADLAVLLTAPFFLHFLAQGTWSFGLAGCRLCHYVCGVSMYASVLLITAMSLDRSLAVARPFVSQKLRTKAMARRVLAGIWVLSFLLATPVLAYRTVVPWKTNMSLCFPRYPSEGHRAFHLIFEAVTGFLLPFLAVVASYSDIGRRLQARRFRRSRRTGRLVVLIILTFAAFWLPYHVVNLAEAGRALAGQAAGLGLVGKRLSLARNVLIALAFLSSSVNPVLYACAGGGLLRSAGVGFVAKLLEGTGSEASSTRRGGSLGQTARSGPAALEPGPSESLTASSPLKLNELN

| IC50 (Leukotriene B4 receptor) [nM] | pKi [1] | SMILES | Kb (Cavia porcellus) [nM] |
| --- | --- | --- | --- |
| 878 | 7.55 | CCCCCCc1cc(CC)c(OCCCCCC(C)(C)c2nn[n-]n2)cc1O.[Na+] | 688 |
| – | – | CCc1cc(OC)c(O)cc1OCCCCCC(C)(C)c1nn[nH]n1 | 222 |
| 179 | 8.29 | CCc1cc(CC)c(OCCCCCC(C)(C)c2nn[n-]n2)cc1O.[Na+] | 167 |
| – | – | CCCCCOc1cc(CC)c(OCCCCCC(C)(C)c2nn[nH]n2)cc1O | 216 |
| – | 8.26 | CCCc1cc(CC)c(OCCCCCC(C)(C)c2nn[nH]n2)cc1O | 34 |
| – | – | CCCCc1cc(CC)c(OCCCCCC(C)(C)c2nn[nH]n2)cc1O | 53 |
| – | – | CCOc1cc(CC)c(OCCCCCC(C)(C)c2nn[nH]n2)cc1O | 264 |
